Assay results from US20090076120A1, “Crystal of Aminopyrrolidine Derivative and Production Method Thereof” (TEIJIN PHARMA LIMITED, priority 2005, published 2009).
“Also recorded” adds a separate entry of the source.

Assays:
[1] = Transition of crystal B into crystal A in ethanol/water suspension (HPLC, XRD); format: physicochemical; details: crystal A versus crystal B
Experimental: Five grams of (R)-3-[2-(2-amino-5-trifluoromethoxybenzamido)acetamido]-1-(6-methylindol-3-ylmethyl)pyrrolidine was suspended in 232 mL of ethanol/water (1.22/1), and the suspension was stirred for 3 hours in an oil bath at 20° C. The precipitated crystals were filtered off and dried at 50° C. under reduced pressure. Yield Amount: 4.25 g (yield: 85%)
HPLC pattern and XRD diagram were measured to confirm that the resulting crystal was crystal A of (R)-3-[2-(2-amino-5-trifluoromethoxybenzamido)acetamido]-1-(6-methylindol-3-ylmethyl)pyrrolidine.

[2] = Storage stability comparison in a thermostatic chamber (HPLC purity, XRD crystal form); format: physicochemical; details: for Purity: HPLC
From the text: Crystal A, crystal B and amorphous form of (R)-3-[2-(2-amino-5-trifluoromethoxybenzamido)acetamido]-1(6-methylindol-3-ylmethyl)pyrrolidine in the amount of 1.50 g, 1.50 g and 0.30 g, respectively were each placed in a transparent glass vial. They were simply covered by filter paper and kept in a thermostatic chamber. Samples were serially extracted for HPLC analysis and the appearance was also observed. Transition of crystal form was monitored by XRD analysis at the point of 163 hrs (only for crystals A and B) and 15 days (for all the samples) from the start. The “time” means storage time. The “temperature” is the preset temperature of the thermostatic chamber used for the storage, which was jumped up at 163 hrs from the start.

[3] = storage 163 hrs at 40 °C (temperature then raised 40 to 60 °C)
[4] = storage 192 hrs, 60 °C from 163 hrs
[5] = storage 240 hrs, 60 °C from 163 hrs
[6] = storage 15 days, 60 °C from 163 hrs
[7] = storage time: initial value, 40 °C, glass vial covered by filter paper

| SMILES | Relative stability of the two crystal forms [1] | Purity ([2]; storage 24 hrs, 40 °C) [%] | Purity ([2]; storage 71 hrs, 40 °C) [%] | Purity ([2]; storage 144 hrs, 40 °C) [%] | Crystal form (XRD) [2, 3] | Purity [2, 4] [%] | Purity [2, 5] [%] | Crystal form (XRD) [2, 6] | Purity [2, 6] [%] | Purity [2, 7] [%] | Storage stability (degradation), in words ([2]; conclusion from Table 5) |
| --- | --- | --- | --- | --- | --- | --- | --- | --- | --- | --- | --- |
| Cc1ccc2c(CN3CC[C@@H](NC(=O)CNC(=O)c4cc(OC(F)(F)F)ccc4N)C3)c[nH]c2c1 [Crystal A, (R)-3-[2-(2-amino-5-trifluoromethoxybenzamido)acetamido]-1-(6-methylindol-3-ylmethyl)pyrrolidine] | higher than that of crystal B | 98.89 | 98.88 | 98.80 | Crystal A | 98.82 | 98.82 | Crystal A | 98.75 | 98.79 |  |
| Cc1ccc2c(CN3CC[C@@H](NC(=O)CNC(=O)c4cc(OC(F)(F)F)ccc4N)C3)c[nH]c2c1 [Crystal B, (R)-3-[2-(2-amino-5-trifluoromethoxybenzamido)acetamido]-1-(6-methylindol-3-ylmethyl)pyrrolidine] |  | 99.22 | 99.31 | 99.22 | Crystal B | 99.28 | 99.19 | Crystal B | 99.28 | 99.20 |  |
| Cc1ccc2c(CN3CC[C@@H](NC(=O)CNC(=O)c4cc(OC(F)(F)F)ccc4N)C3)c[nH]c2c1 [amorphous form, (R)-3-[2-(2-amino-5-trifluoromethoxybenzamido)acetamido]-1-(6-methylindol-3-ylmethyl)pyrrolidine] |  | 97.78 | 97.55 | 97.25 |  | 95.88 | 94.33 | amorphous | 91.14 | 98.03 | degradation of amorphous form; also recorded: less storage stability compared to the crystal forms |
